Data as given in patent US12419862B2, “Use of a cathepsin s inhibitor against the formation of anti-drug antibodies” (Hoffmann-La Roche Inc., priority 2018, dated 2025).

Legend:
[1] = test system: IgG response to murine surrogate PD-L1; assay: ADA against murine surrogate PD-L1 in wild-type mice, ELISA (Example 7); format: in vivo, C57BL/6 mice; details: 40 mg/kg/day via food admix from one week before first immunization until day 23
Description: 10-week-old female mice C57BL/6 were purchased from Charles River Laboratories (Germany) and housed at the animal facilities in room with air-conditioned under a 12 hours light/dark cycle in macrolon boxes with enriched environment and free access to water and food. 10 mg/kg of muPD-L1 (P1AE4930-001) were injected at day 1, 8 and 15 intravenously to the group 4 (n=10 mice) and at day 1, 8, 15 and 22 to the group 5 (n=10 mice) respectively. The dosage of (2S,4R)-4-[4-(1-methyl-1H-pyrazol-4-yl)-2-trifluoromethyl-benzenesulfonyl]-1-(1-trifluoromethyl-cyclopropanecarbonyl)-pyrrolidine-2-carboxylic acid (1-cyano-cyclopropyl)-amide consumption was 40 mg/kg/day. (2S,4R)-4-[4-(1-methyl-1H-pyrazol-4-yl)-2-trifluoromethyl-benzenesulfonyl]-1-(1-trifluoromethyl-cyclopropanecarbonyl)-pyrrolidine-2-carboxylic acid (1-cyano-cyclopropyl)-amide was given via food admix (Ssniff Spezialdiäten, Germany) daily from one week before the first muPD-L1 immunization until day 23 to the group 5. […]
(§1) Nunc Maxisorp flat-bottom 96 well ELISA plates were coated with 100 μl per well of anti muPD-L1 (P1AE4930-001) at 5 μg/mL in NaHCO3100 mM buffer overnight at +4° C. […] 100 μl of substrate P-nitrophenyl phosphate ready to use (Life Technologies, Cat no 002212) were added per well and after 10 min incubation at room temperature, the OD at 405 nm was read as an end-point measurement with a Versamax ELISA reader.

[2] = test system: high affinity NP-specific IgG response; assay: T-cell dependent NP-specific IgG response after NP-OVAL immunization, ELISA (Example 2); format: in vivo, mice; details: 40 mg/kg/day via food admix from two days before NP-OVAL immunization until day 35, vs vehicle
Description: 6 to 8-weeks-old female mice C57BL/6-Tg (hIgG1,k,l) were purchased from Charles River Laboratories (Germany) and housed at the animal facilities in room with air-conditioned under a 12 hours light/dark cycle in macrolon boxes with enriched environment and free access to water and food. The mice were injected at day −2 subcutaneously with 20 μg/mouse of NP-OVAL (4-Hydroxy-3-nitrophenylacetyl hapten conjugated to ovalbumin, Biosearch Technologies, USA, Batch No 060368) with adjuvant (Alhydrogel, InvivoGen #vac-alu-250) at the both flanks or without adjuvant at day 28. The dosage of (2S,4R)-4-[4-(1-methyl-1H-pyrazol-4-yl)-2-trifluoromethyl-benzenesulfonyl]-1-(1-trifluoromethyl-cyclopropanecarbonyl)-pyrrolidine-2-carboxylic acid (1-cyano-cyclopropyl)-amide consumption was 0 (vehicle), 1, 10, 40 mg/kg/day. […]
as §1, with “of NP(4)-BSA (Biosearch Technologies N-5050L; 1 mg/mL)” for “of anti muPD-L1 (P1AE4930-001)”, “at 1” for “at 5”, “buffer and incubated” for “buffer”

Cn1cc(-c2ccc(S(=O)(=O)[C@@H]3C[C@@H](C(=O)NC4(C#N)CC4)N(C(=O)C4(C(F)(F)F)CC4)C3)c(C(F)(F)F)c2)cn1 [cathepsin S inhibitor, (2S,4R)-4-[4-(1-methyl-1H-pyrazol-4-yl)-2-trifluoromethyl-benzenesulfonyl]-1-(1-trifluoromethyl-cyclopropanecarbonyl)-pyrrolidine-2-carboxylic acid (1-cyano-cyclopropyl)-amide]
ADA to mPD-L1 [1]: significantly reduced ADA to mPD-L1 | NP-specific IgG levels (T-cell dependent IgG response against NP) [2]: significantly reduces NP-specific IgG levels | NP-specific IgG levels (T-cell dependent IgG response against NP) ([2]; listed as cathepsin S antagonist): effectively abrogating the T-cell dependent IgG response against NP
